In article PMC6145842 (Biochemical and biophysical research communications, 2018):

Target: T1, DXO (Mus musculus, UniProt O70348)
T1 sequence (O70348 1-397): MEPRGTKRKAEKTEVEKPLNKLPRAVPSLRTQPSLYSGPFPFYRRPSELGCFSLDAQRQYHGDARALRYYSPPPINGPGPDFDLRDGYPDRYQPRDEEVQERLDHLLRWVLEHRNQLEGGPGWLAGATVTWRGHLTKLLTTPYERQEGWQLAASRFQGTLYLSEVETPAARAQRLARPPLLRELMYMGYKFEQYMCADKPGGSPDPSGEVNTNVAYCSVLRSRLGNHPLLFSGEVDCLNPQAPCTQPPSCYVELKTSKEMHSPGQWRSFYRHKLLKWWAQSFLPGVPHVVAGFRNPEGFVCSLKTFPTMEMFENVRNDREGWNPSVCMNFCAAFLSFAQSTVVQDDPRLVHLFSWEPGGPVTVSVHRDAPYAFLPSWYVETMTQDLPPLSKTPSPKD
Assay: crystal structure at […] Å
Assay type: binding

Kd: 20 to 30 mM
SMILES: Nc1ncnc2c1ncn2[C@@H]1O[C@H](COP(=O)(O)O)[C@@H](OP(=O)(O)O)[C@H]1O [pAp, adenosine 3’,5’-bisphosphate]
